# Molecular target: T1, dipeptidyl peptidase-4 (DPP-4) (Homo sapiens, UniProt P27487)
# T1 construct: gene DPP4; recombinant human DPP-4 enzyme
# Assay: fluorogenic enzyme inhibition assay (H-Gly-Pro-AMC cleavage, Sigma DPP-4 inhibitor screening kit)
# Assay type: biochemical
# T1 sequence (P27487 39-766): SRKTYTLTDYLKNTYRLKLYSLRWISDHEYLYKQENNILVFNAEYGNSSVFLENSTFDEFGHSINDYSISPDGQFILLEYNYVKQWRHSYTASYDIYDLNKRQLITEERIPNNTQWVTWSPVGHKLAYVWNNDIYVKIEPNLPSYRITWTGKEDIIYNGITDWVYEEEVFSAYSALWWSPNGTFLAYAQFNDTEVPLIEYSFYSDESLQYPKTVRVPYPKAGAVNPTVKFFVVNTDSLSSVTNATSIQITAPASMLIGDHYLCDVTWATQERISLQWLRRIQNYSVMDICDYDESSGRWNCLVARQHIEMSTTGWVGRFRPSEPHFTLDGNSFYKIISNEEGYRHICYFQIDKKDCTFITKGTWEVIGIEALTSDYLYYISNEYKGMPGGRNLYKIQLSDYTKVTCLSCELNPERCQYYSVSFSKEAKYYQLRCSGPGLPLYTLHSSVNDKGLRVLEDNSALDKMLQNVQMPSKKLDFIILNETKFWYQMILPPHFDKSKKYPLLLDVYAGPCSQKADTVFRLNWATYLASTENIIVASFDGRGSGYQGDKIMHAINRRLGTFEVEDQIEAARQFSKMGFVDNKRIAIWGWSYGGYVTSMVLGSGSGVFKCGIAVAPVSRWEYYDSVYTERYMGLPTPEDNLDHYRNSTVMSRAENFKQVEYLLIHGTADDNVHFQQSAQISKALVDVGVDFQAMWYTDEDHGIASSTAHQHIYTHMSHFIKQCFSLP
structure (smiles),measurement,value
"O=c1c(O)c(-c2ccccc2)oc2cc(O)cc(O)c12 [Galangin, 3,5,7-trihydroxyflavone]",IC50,40.1 µM

# Source: PMC6429117, “Discovery of Galangin as a Potential DPP-4 Inhibitor That Improves Insulin-Stimulated Skeletal Muscle Glucose Uptake: A Combinational Therapy for Diabetes” (International Journal of Molecular Sciences, 2019)
